Data from ChEMBL document CHEMBL3763120, “Phenyl Benzenesulfonylhydrazides Exhibit Selective Indoleamine 2,3-Dioxygenase Inhibition with Potent in Vivo Pharmacodynamic Activity and Antitumor Efficacy” (J Med Chem, 2016).

Molecular target: Adenosine receptor A1 (Homo sapiens) (UniProt P30542)
Assay: Inhibition of Adenosine A1 receptor (unknown origin) at 10 uM

Adenosine receptor A1 (Homo sapiens), sequence (P30542 whole entry): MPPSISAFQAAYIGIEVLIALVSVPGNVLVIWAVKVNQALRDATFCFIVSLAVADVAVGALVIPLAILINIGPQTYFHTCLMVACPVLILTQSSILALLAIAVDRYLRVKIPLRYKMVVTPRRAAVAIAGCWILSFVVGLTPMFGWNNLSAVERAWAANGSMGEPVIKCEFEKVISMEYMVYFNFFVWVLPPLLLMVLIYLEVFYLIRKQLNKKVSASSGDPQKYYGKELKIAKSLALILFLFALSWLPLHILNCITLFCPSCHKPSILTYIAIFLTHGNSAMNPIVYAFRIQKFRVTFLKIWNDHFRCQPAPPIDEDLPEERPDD

O=C1Cc2cc(S(=O)(=O)NNc3ccc(Br)cc3)ccc2N1
inhibition: < 50%
